Reference: PMC5618418, “Pharmacokinetics of Jaspine B and Enhancement of Intestinal Absorption of Jaspine B in the Presence of Bile Acid in Rats” (Marine Drugs, 2017)
Where two headings read alike, the source gives them in different places.

Assays:
[1] = Pharmacokinetics after oral administration with or without taurocholate in control and bile-depleted rats; type: in vivo; conditions: male, rat, plasma, 30 mg/kg; for bioavailability: oral 30 mg/kg vs IV 10 mg/kg, read-out: BA (oral bioavailability); for AUC(0-inf) / MRT / Tmax / half-life / AUC(0-t) / Cmax: oral 30 mg/kg; for AUC(0-t): read-out: AUC12h
Protocol: Male SD rats (aged 8–9 weeks, weighing 250–300 g) were obtained from Samtako Bio Korea, Inc. (Osan, Korea). The rats were acclimatized for 1 week in a temperature-controlled room (23 ± 2 °C) with a 12-h illumination cycle. Food and water were given ad libitum. All animal procedures were approved by the Animal Care and Use Committee of the Kyungpook National University (No. 2015-0064). The rats were fasted for at least 12 h before the oral administration of drugs.
The femoral artery, femoral vein, and bile duct were cannulated with polyethylene tubes (PE-50 and PE-10; Jungdo, Seoul, Korea) under light anesthesia with isoflurane.
For oral dosing, Jaspine B was dissolved in a vehicle containing DMSO: PEG400: saline (2:4:4, v/v/v) and was administered by oral gavages at a single dose of 30 mg/kg of Jaspine B concomitantly with or without 60 mg/kg TC (vehicle volume, 3 mL/kg) to the control and bile-depleted rats. Bile depletion was accomplished with 4 h drainage of bile through the bile cannula, which was cannulated to the bile duct using PE-10 tubing.
Blood samples (approximately 250 μL each) were collected from the femoral artery at 0, 0.25, 0.5, 1, 1.5, 2, 4, 8, and 12 h following the oral administration of Jaspine B. After centrifugation of blood samples at 13,200 rpm for 10 min, plasma samples (50 μL) were collected and stored at −80 °C until the analysis by liquid chromatography tandem-mass spectrometry (LC-MS/MS). Aliquots (50 μL) of plasma samples were added to 250 μL of acetonitrile containing 0.5 ng/mL of berberine (an internal standard). After vortexing for 10 min and centrifugation at 13,200 rpm for 5 min, an aliquot (10 μL) of the supernatant was injected directly into the LC-MS/MS system. The standard curve range was 5–2000 ng/mL and the concentrations of quality control (QC) samples were 60, 300, and 2000 ng/mL.
Pharmacokinetic parameters were determined using a non-compartmental analysis (WinNonlin® 2.0; Pharsight, Mountain View, CA, USA). Maximum plasma concentration (Cmax) and time to reach Cmax (Tmax) values were obtained from plasma concentration-time curves. The area under the plasma concentration–time curve from zero to infinity (AUC) was calculated using the trapezoidal-extrapolation method. For extrapolation, the area from the last data point to infinity was estimated by dividing the […].
However, in the case of bile-depleted rats, AUC∞ and T1/2 were not calculated because the elimination rate constant could not be obtained.

[2] = tested on: metastatic melanoma cell growth in the lungs; design: method as in PMID 22451302; conditions: mice, intravenous (equivalent to 6.7 mg/kg) on 4th, 8th, 12th day, read on day 14; cited from earlier work
[3] = tested on: SK-OV3; design: method as in doi:10.5352/JLS.2016.26.12.1392; conditions: SK-OV3 ovarian; cited from earlier work
[4] = Cumulative urinary and fecal excretion in metabolic cage; type: in vivo; conditions: rat, IV 10 mg/kg, 72 h; for dose excreted: feces and urine combined, read-out: recovery of unaltered Jaspine B from combined feces and urine
Protocol: In the experiment using metabolic cages, feces were collected at 12, 24, 48, and 72 h following the IV administration of Jaspine B (10 mg/kg). Aliquots of 50 μL of urine and 10% feces homogenates were stored at −80 °C until the analysis.
Aliquots (50 μL) of plasma, bile, feces homogenates, and urine samples were added to 250 μL of acetonitrile containing 0.5 ng/mL of berberine (an internal standard). After vortexing for 10 min and centrifugation at 13,200 rpm for 5 min, an aliquot (2 μL) of the supernatant was injected directly into the LC-MS/MS system. For the analysis of plasma concentration, the standard curve range was 25–5000 ng/mL and the concentrations of quality control (QC) samples were 75, 500, and 3000 ng/mL, as described previously. Concentrations of Jaspine B in urine, bile, and feces homogenates were 5–300 ng/mL, 20–5000 ng/mL, and 20–5000 ng/mL, respectively. The concentrations of QC samples were 15, 100, and 300 ng/mL for urine samples and 75, 500, and 3000 ng/mL for bile and feces homogenates.

[5] = tested on: MDA-MB-231; design: method as in doi:10.5352/JLS.2016.26.12.1392; conditions: MDA-MB-231 human breast adenocarcinoma; cited from earlier work
[6] = SD, bile depletion + TC 60 mg/kg

## CCCCCCCCCCCCCC[C@@H]1OC[C@H](N)[C@@H]1O [Jaspine B]
[1]; [6]
  bioavailability: 23.5%
  AUC(0-inf): 1200 ± 254 ng·h/mL
  MRT: 4.9 ± 0.5 h
  Tmax: 1 ± 0.5 h
  half-life: 7.2 ± 1.5 h
  AUC(0-t): 828 ± 180 ng·h/mL
[1]; SD, bile-depleted rats, from AUC12h
  bioavailability: 1.6%
[1]; SD, control + TC 60 mg/kg
  bioavailability: 41.2%
  AUC(0-inf): 2100 ± 419 ng·h/mL
  Cmax: 174 ± 13 ng/mL
  MRT: 5.5 ± 0.03 h
  Tmax: 3.3 ± 2.3 h
  half-life: 6.4 ± 2.8 h
  AUC(0-t): 1406 ± 4.3 ng·h/mL
[1]; SD, control rats
  bioavailability: 6.2%
  AUC(0-inf): 314 ± 76.1 ng·h/mL
  MRT: 4.9 ± 0.4 h
  Tmax: 2.5 ± 1.3 h
  half-life: 5.5 ± 1.1 h
  AUC(0-t): 241 ± 57.8 ng·h/mL
[1]; SD, bile-depleted rats
  MRT: 6.1 ± 0.3 h
  Tmax: 9.3 ± 2.3 h
  AUC(0-t): 80.3 ± 42.7 ng·h/mL
[1]; Sprague-Dawley, bile depletion + TC 60 mg/kg
  Cmax: 163 ± 28.4 ng/mL
[1]; Sprague-Dawley, bile-depleted rats
  Cmax: 8.5 ± 2.8 ng/mL
[1]; Sprague-Dawley, control rats
  Cmax: 36.3 ± 11.3 ng/mL
[2]
  metastatic melanoma cell growth in the lungs: dramatically decreased
[3]
  IC50: 4.78 µM
[4]; SD (Sprague-Dawley)
  dose excreted: 6.3%
[4]; Sprague-Dawley (SD)
  dose excreted: ~6.3%
[4]; metabolic cage
  dose recovered from feces: 4.7 ± 0.8%
  dose recovered from urine: 1.6 ± 0.7%
[5]
  IC50: > 100 µM
